Experimental data taken from patent publication US20260176700A1, “TOXICITY MARKER FOR 5-FLUOROURACIL” (Oxford University Innovation Limited, priority 2022, published 2026).

What was measured:
[1] = test system: patients with reduced DPD activity; settings: patients with germline DPYD variants / reduced DPD activity, 5FU-related toxicity; cited from earlier work
[2] = test system: colorectal cancer patients; test: QUASAR 2 clinical trial: cardiovascular related adverse events under capecitabine; format: in vivo, human; settings: stage II/III colorectal cancer patients administered capecitabine (alone or plus bevacizumab), most common events cardiac chest pain and angina
Procedure: QUASAR 2, a randomised controlled trial of capecitabine+bevacizumab has been described previously (Kerr, R. S., et al. Lancet Oncol, 2016. 17(11):1543-1557; and Rosmarin, D., et al. Gut, 2015. 64(1):111-20). Briefly, participants were stage II/stage III colorectal cancer patients with performance status 0/1 and normal renal function. Patients were randomly assigned (1:1) to receive eight 3-week cycles of oral capecitabine alone (1250 mg/m^2 twice daily for 14 days followed by a break for 7 days) or the same regimen of oral capecitabine plus 16 cycles of 7.5 mg/kg bevacizumab by intravenous infusion over 90 min on day 1 of each cycle. All patients consented for use of biological samples and medical records in research. Cardiovascular toxicity was confirmed by two independent clinicians reviewing patient case report forms.
3% of colorectal cancer patients administered with capecitabine as part of the QUASAR 2 clinical trial experienced cardiovascular related adverse events. The most commonly described events were cardiac chest pain and angina. The inventors performed a genome wide association study to identify genetic markers associated with cardiovascular adverse events under an additive genetic model. Given the rarity of cardiovascular toxicity, variants with a minor allele frequency (MAF)<10% were filtered out. […]

## O=c1[nH]cc(F)c(=O)[nH]1 [5FU, 5-flurouracil]
[1]
  patients with reduced DPD activity who experience cardiotoxicity: 2-5%

## CCCCCOC(=O)Nc1nc(=O)n(C2OC(C)C(O)C2O)cc1F (centres unmarked) [capecitabine, pentyl [1-(3,4-dihydroxy-5-methyltetrahydrofuran-2-yl)-5-fluoro-2-oxo-1H-pyrimidin-4-yl]carbamate]
[2]
  patients who experienced cardiovascular related adverse events: 3%
